Reference: US20150315241A1, “Antibiotic Peptides” (priority 2007, published 2015)
Values after ≈ are worked out from the molar mass of the structure shown. Where two headings read alike, the source gives them in different places. Where a SMILES comes first, the peptide text is derived from it. Where no end group is shown, it is not given here. [ ]: non-standard residue; d: D form. Hyp = O=C(O)[C@@H]1C[C@@H](O)CN1; Orn = NCCC[C@H](N)C(=O)O

Legend:
[1] = system: Mycobacterium vaccae; assay type: cell-based
Procedure: The minimal inhibition concentrations (MIC) of the apidaecin-derived peptides and peptide-derivatives were determined by a growth inhibition assay using a serial peptide dilution in sterilized round-bottom 96-well plates (polystyrene, U-bottom, Greiner Bio-One GmbH) with a final volume of 100 μL per well. The bacteria, e.g., E. coli BL21 A1, were grown in nutrient broth (NB, Carl Roth GmbH+Co. KG, Karlsruhe, Germany) at 37° C. over night. To each well of the 96-well plate, 50 μL of the overnight culture adjusted to 5×10^6 CFU/mL in 1% TSB were added. Lyophilized peptides and peptidomimetics were dissolved in 1% TSB (tryptic soy broth) or water to give a final concentration of 250 μg/mL. Fifty μL of the peptide or peptidomimetics solution were added to the first well of a row on the plate and mixed. Fifty μL of the first well containing the peptide solution were transferred to the second well, mixed and again 50 μL transferred to the next well and so on. Thereby, a two-fold dilution series was obtained starting at 250 μg/mL in the first well down to 120 ng/mL in the 12th well of a row giving a final peptide or peptidomimetics concentration from 125 μg/mL (well 1) to 60 ng/mL (well 12). Plates were incubated at 37° C. for 20 hrs. The absorbance was measured at 595 nm using a TECAN micro plate spectrophotometer (Tecan, Germany). All peptides and peptidomimetics were measured in triplicates. Sterilized water was used as a negative control.
The bacteria strains were tested: • Eschericha coli 1103, 10233, BL 21 AI, DC 2, • Klebsiella pneumoniae 681, • Micrococcus luteus ATCC 10240, • Mycobacterium vaccae • Bactillus subtillis 347.

[2] = system: M. luteus ATCC 10240; assay type: cell-based, Micrococcus luteus
Procedure, shortened: (§1)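 Bacteria grown overnight in NB at 37° C. were adjusted to 5×10^6 CFU/mL in 1% TSB and mixed 1:1 with a two-fold peptide series (final 125 μg/mL–60 ng/mL). After 20 hrs at 37° C., A595 was read; triplicates.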

[3] = system: E. coli 1103; assay type: cell-based, Escherichia coli
Procedure, shortened: as §1

[4] = system: S. enterica subsp. Enterica serovar. typhi G10215 ATCC 700408; assay type: cell-based, Salmonella enterica; conditions: ATCC 700408, 20 h
Procedure, shortened: (§2)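 Broth microdilution with two-fold peptide series, final 125 μg/mL down to 60 ng/mL, against overnight cultures adjusted to 5×10^6 CFU/mL in 1% TSB. Incubated 20 h at 37° C. Growth read by absorbance at 595 nm, triplicates.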

[5] = system: B. subtilis 347; assay type: cell-based, Bactillus subtillis
Procedure, shortened: as §1

[6] = system: E. coli D31; assay type: cell-based, Escherichia coli; conditions: D31, 20 h
Procedure, shortened: as §2

[7] = system: K. Pneumonia 123132; test: Growth inhibition assay (MIC); assay type: cell-based, Klebsiella pneumoniae
Procedure, shortened: as §2

[8] = system: K. Pneumonia K6, ATCC 700603; test: Growth inhibition assay (MIC); assay type: cell-based, Klebsiella pneumoniae; conditions: multidrug resistant strain; 1% TSB, 37° C., 20 hrs
Procedure, shortened: as §2

[9] = system: E. coli 45849; test: Growth inhibition assay (MIC); assay type: cell-based, Escherichia coli
Procedure, shortened: as §2

[10] = system: S. typhi S5; assay type: cell-based, Salmonella typhi; conditions: S5, 20 h
Procedure, shortened: as §2

[11] = system: R. radiobatter ATCC 15955; test: Growth inhibition assay (MIC); assay type: cell-based, Rhizobium radiobacter
Procedure, shortened: as §2

[12] = in vitro; assay type: in vitro ADME, mouse; conditions: 25% aqueous mouse serum, 37° C.; read-out: Half-life time
Procedure: Serum stability studies were carried out in duplicate as described by Hoffmann et al.. Briefly, 28 μL of an aqueous peptide or peptidomimetics solution (0.5 mg/mL) was added to 0.2 mL freshly pooled 25% mouse serum (Sigma-Aldrich GmbH, Taufkirchen, Germany) in water. The mixtures were incubated at 37° C. under gentle stirring. The proteins were precipitated with 40 μL of 15% aqueous TCA after incubation times of 0, 0.5, 1, 2, 4 and 6 h at 0° C. for 20 min before centrifuged (13500×G) at 4° C. for 5 min. The supernatants of all samples (240 μL) were neutralized with 1 mol/L aqueous NaOH and immediately stored at −20° C. The supernatants were analyzed by RP-HPLC using a linear acetonitrile gradient as described above with 0.1% TFA as ion pair reagent. Collected fractions of the main peaks were further analyzed by tandem mass spectrometry (MALDI-TOF/TOF-MS, 4700 Proteomics Analyzer, Applied Biosystems GmbH, Weiterstadt, Germany) in positive ion reflector mode using α-cyanohydroxycinnamic acid (50% CH3CN in 0.1% aqueous TFA) as matrix to identify the degradation products of the peptides and peptidomimetics, i.e., metabolites, at the different time points. Serum control samples consisted of 200 μL of pooled 25% mouse serum in water, which were also precipitated with 40 μL 15% aqueous TCA, as described before. Peptide reference samples consisted of 28 μL of the peptide stock solution diluted in 0.2 mL water and 40 μL of 15% aqueous trichloroacetic acid (TCA).

[13] = system: E. coli DC 2; test: Growth inhibition assay (MIC); assay type: cell-based, Escherichia coli; conditions: 1% TSB, 37° C., 20 hrs
Procedure, shortened: as §1

[14] = system: E. coli BL 21 AI; test: Growth inhibition assay (MIC); assay type: cell-based, Escherichia coli; conditions: 1% TSB, 37° C., 20 hrs
Procedure, shortened: as §1

[15] = system: K. pneumonia 681; assay type: cell-based, Klebsiella pneumoniae
Procedure, shortened: as §1

[16] = system: E. coli 10233; assay type: cell-based, Escherichia coli
Procedure, shortened: as §1

[17] = multidrug resistant strain, 1% TSB, 37° C., 20 hrs

Molecule	MIC Mycobacterium vaccae ([1]; 20 h)	MIC M. luteus ATCC 10240 ([2]; ATCC 10240, 20 h)	MIC E. coli 1103 ([3]; 1103, 20 h)	MIC S. enterica subsp. Enterica serovar. typhi G10215 ATCC 700408 [4]	MIC B. subtilis 347 ([5]; 347, 20 h)	MIC E. coli D31 [6]	MIC K. Pneumonia 123132 [7, 17]	MIC K. Pneumonia K6, ATCC 700603 [8]	MIC E. coli 45849 [9, 17]	MIC S. typhi S5 [10]	MIC R. radiobatter ATCC 15955 [11, 17]	half-life at 0.061 mg/mL [12]	MIC E. coli DC 2 [13]	MIC E. coli BL 21 AI [14]	MIC K. pneumonia 681 ([15]; 20 h)	MIC E. coli 10233 ([16]; 10233, 20 h)	further results
CC[C@H](C)[C@H](NC(=O)[C@H](Cc1ccc(O)cc1)NC(=O)[C@@H](NC(=O)[C@@H]1CCCN1C(=O)[C@H](CCCNC(=N)N)NC(=O)[C@H](CC(N)=O)NC(=O)[C@H](CC(N)=O)NC(=O)[C@H](CCCN)NC(C)=O)C(C)C)C(=O)N1CCC[C@H]1C(=O)N[C@@H](CCC(N)=O)C(=O)N1CCC[C@H]1C(=O)N[C@@H](CCCNC(=N)N)C(=O)N1CCC[C@H]1C(=O)N1CCC[C@H]1C(=O)N[C@@H](Cc1c[nH]cn1)C(=O)N1CCC[C@H]1C(=O)N[C@@H](CCCNC(=N)N)C(=O)N[C@@H](CC(C)C)C(N)=O [compound 7] (Ac-[Orn]NNRPVYIPQPRPPHPRL-NH2)	125 µg/mL (≈ 56.6 µM)	3.91 µg/mL (≈ 1.77 µM)	1.95 µg/mL (≈ 0.884 µM)	0.5 to 1 µg/mL	>125 µg/mL	4 to 8 µg/mL	16 µg/mL (≈ 7.25 µM)	64 µg/mL (≈ 29 µM)	1 µg/mL (≈ 0.453 µM)	2 µg/mL (≈ 0.906 µM)	<0.16 µg/mL	15 min	3.9 µg/mL (≈ 1.77 µM)	0.49 µg/mL (≈ 0.222 µM)	1.95 µg/mL (≈ 0.884 µM)	–	–
CC[C@H](C)[C@H](NC(=O)[C@H](Cc1ccc(O)cc1)NC(=O)[C@@H](NC(=O)[C@@H]1CCCN1C(=O)[C@H](CCCNC(=N)N)NC(=O)[C@H](CC(N)=O)NC(=O)[C@H](CC(N)=O)NC(=O)[C@@H](N)CCCN)C(C)C)C(=O)N1CCC[C@H]1C(=O)N[C@@H](CCC(N)=O)C(=O)N1CCC[C@H]1C(=O)N[C@@H](CCCNC(=N)N)C(=O)N1CCC[C@H]1C(=O)N1CCC[C@H]1C(=O)N[C@@H](Cc1c[nH]cn1)C(=O)N1CCC[C@H]1C(=O)N[C@@H](CCCNC(=N)N)C(=O)N[C@@H](CC(C)C)C(N)=O [compound 8] (H-[Orn]NNRPVYIPQPRPPHPRL-NH2)	125 µg/mL (≈ 57.7 µM)	7.84 µg/mL (≈ 3.62 µM)	–	<0.25 µg/mL	>125 µg/mL	2 µg/mL (≈ 0.924 µM)	1 µg/mL (≈ 0.462 µM)	16 µg/mL (≈ 7.39 µM)	<0.25 µg/mL	<0.5 µg/mL	<0.16 µg/mL	30 min	0.98 µg/mL (≈ 0.453 µM)	0.24 µg/mL (≈ 0.111 µM)	1.95 µg/mL (≈ 0.901 µM)	–	–
CC[C@H](C)[C@H](NC(=O)[C@H](Cc1ccc(O)cc1)NC(=O)[C@@H](NC(=O)[C@@H]1CCCN1C(=O)[C@H](CCCNC(=N)N)NC(=O)[C@H](CC(N)=O)NC(=O)[C@H](CC(N)=O)NC(=O)CN)C(C)C)C(=O)N1CCC[C@H]1C(=O)N[C@@H](CCCN)C(=O)N1C[C@H](O)C[C@H]1C(=O)N[C@@H](CCCNC(=N)N)C(=O)N1CCC[C@H]1C(=O)N1CCC[C@H]1C(=O)N[C@@H](Cc1c[nH]cn1)C(=O)N1CCC[C@H]1C(=O)N[C@@H](CCCNC(=N)N)C(=O)N[C@@H](CC(C)C)C(N)=O [compound 11] (H-GNNRPVYIP[Orn][Hyp]RPPHPRL-NH2)	–	–	–	<0.25 µg/mL	–	8 µg/mL (≈ 3.79 µM)	–	8 µg/mL (≈ 3.79 µM)	–	<0.5 µg/mL	–	–	0.98 µg/mL (≈ 0.465 µM)	0.49 µg/mL (≈ 0.232 µM)	–	–	MIC Mycobacterium vaccae ([1]; 1% TSB, 37° C., 20 hrs): 125 µg/mL (≈ 59.3 µM); MIC M. luteus ATCC 10240 ([2]; 1% TSB, 37° C., 20 hrs): 1.95 µg/mL (≈ 0.924 µM); MIC E. coli 10233 ([16]; 1% TSB, 37° C., 20 hrs): 3.91 µg/mL (≈ 1.85 µM); MIC E. coli 1103 ([3]; 1% TSB, 37° C., 20 hrs): 3.9 µg/mL (≈ 1.85 µM); MIC B. subtilis 347 ([5]; 1% TSB, 37° C., 20 hrs): 125 µg/mL (≈ 59.3 µM); MIC K. Pneumonia 123132 ([7]; 20 h): 8 µg/mL (≈ 3.79 µM); MIC E. coli 45849 ([9]; 45849, 20 h): 1 µg/mL (≈ 0.474 µM); MIC R. radiobatter ATCC 15955 ([11]; ATCC 15955, 20 h): <0.16 µg/mL; MIC K. pneumonia 681 ([15]; 1% TSB, 37° C., 20 hrs): 1.95 µg/mL (≈ 0.924 µM)
CC[C@H](C)[C@H](NC(=O)[C@H](Cc1ccc(O)cc1)NC(=O)[C@@H](NC(=O)[C@@H]1CCCN1C(=O)[C@H](CCCNC(=N)N)NC(=O)[C@H](CC(N)=O)NC(=O)[C@H](CC(N)=O)NC(=O)[C@@H](N)CCCN)C(C)C)C(=O)N1CCC[C@H]1C(=O)N[C@@H](CCCNC(=N)N)C(=O)N1CCC[C@H]1C(=O)N[C@@H](CCCNC(=N)N)C(=O)N1CCC[C@H]1C(=O)N1CCC[C@H]1C(=O)N[C@@H](Cc1c[nH]cn1)C(=O)N1CCC[C@H]1C(=O)N[C@@H](CCCNC(=N)N)C(=O)N[C@@H](CC(C)C)C(N)=O [compound 38] (H-[Orn]NNRPVYIPRPRPPHPRL-NH2)	125 µg/mL (≈ 57 µM)	1.95 µg/mL (≈ 0.889 µM)	3.91 µg/mL (≈ 1.78 µM)	2 µg/mL (≈ 0.912 µM)	62.5 µg/mL (≈ 28.5 µM)	2 µg/mL (≈ 0.912 µM)	2 µg/mL (≈ 0.912 µM)	4 µg/mL (≈ 1.82 µM)	0.5 µg/mL (≈ 0.228 µM)	<0.5 µg/mL	1.3 µg/mL (≈ 0.593 µM)	–	0.98 µg/mL (≈ 0.447 µM)	1.95 µg/mL (≈ 0.889 µM)	1.95 µg/mL (≈ 0.889 µM)	1.95 µg/mL (≈ 0.889 µM)	–
GNNRPVYIPQPRPPHPRI [compound 1]	>125 µg/mL	31.25 µg/mL	1.95 µg/mL	2 µg/mL	>125 µg/mL	64 µg/mL	–	64 µg/mL	–	–	–	–	3.91 µg/mL	0.98 µg/mL	15.62 µg/mL	1.95 µg/mL	–
